≈ marks a conversion by molar mass, not a printed value. Where “and” joins values, the source holds several entries; their conditions need not be identical. Equal entries are not always repeated. Where two headings read alike, the source gives them in different places. Where a SMILES comes first, the peptide text is derived from it. Bridges are numbered along the chain shown (N, C = ends). [ ]: non-standard residue; d: D form. The star is where a group is joined. X1 = CC[C@H](C)CCCCC(=O)*; Dab = NCC[C@H](N)C(=O)O
Assays:
E. coli ATCC 25922 = experiment: microbe, parasite or virus in culture
Protocol: (§1) A positive control of a row of just the bacteria and a negative control of only the medium were included for every plate tested.
(§2) The compounds along with standard antibiotics were serially diluted 2-fold across the 96-well plates. […] A sample of each culture was then diluted 40-fold in fresh MH broth (in presence and absence of Tween) and incubated at 37°C for 2 to 3 h.
For experiments in the presence of surfactant, 2% beractant (25 mg/ml) was added to the mid-log-phase cultures and mixed gently and added to all the 96-well plates. For experiments in the presence of serum, a mixture of 50% of human serum along with 50% MHB was prepared and used throughout the experiment.

E. coli = conditions: literature value; cited from earlier work
[1] = 8 µg/ml, 24 h, cited from earlier work; for % of expected concentration detected: MHB
Description: (§3) Members of the lipopeptide polymyxin class of antibiotics (polymyxin B [compound 7a] and polymyxin E [or colistin, compound 7b]) are important last-line therapeutic agents against many multidrug-resistant Gram-negative bacteria ([27][–][31]). They consist of an N-terminal fatty acid side chain that is attached to a polycationic deca-peptide backbone (Fig. 1) with physicochemical properties similar to those of the lipoglycopeptides. These structural features confer amphipathicity, which is a key feature of many other cationic antimicrobial peptides (CAMPs) ([32][–][34]). As mentioned earlier, p ...

over 200 strains = conditions: 0.002% polysorbate added; cited from earlier work
Description: as §3

[2] = literature values, reference given; cited from earlier work
Description: Other assay additives can affect MIC values. […] Plasma protein binding has been implicated as a major factor limiting the active free concentration of many clinically important antibiotics ([37][–][42]).

A. baumannii ATCC 19606 = experiment: microbe, parasite or virus in culture; conditions: n = 2
Protocol: as §1, §2

K. pneumoniae ATCC 13883 = experiment: microbe, parasite or virus in culture; conditions: n = 2
Protocol: as §1, §2

P. aeruginosa ATCC 10145 = experiment: microbe, parasite or virus in culture; conditions: n = 2
Protocol: as §1, §2

CC[C@H](C)CCCCC(=O)N[C@@H](CCN)C(=O)N[C@H](C(=O)N[C@@H](CCN)C(=O)N[C@H]1CCNC(=O)[C@H]([C@@H](C)O)NC(=O)[C@H](CCN)NC(=O)[C@H](CCN)NC(=O)[C@H](CC(C)C)NC(=O)[C@@H](CC(C)C)NC(=O)[C@H](CCN)NC1=O)[C@@H](C)O [Colistin, colistin] (X1-[Dab]T[Dab][Dab][Dab][dL]L[Dab][Dab]T; lactam 4-C (inferred); N-terminus assumed)
MIC (E. coli ATCC 25922; Corning NBS, MH + 2% LHB, 2% LS, n = 2): 0.03 to 0.06 µg/mL
MIC (E. coli ATCC 25922; Corning NBS, MH + 2% LHB, 50% HS, n = 2): ≤0.03 µg/mL
MIC (E. coli ATCC 25922; Corning NBS, MH + 2% LHB, no additive, n = 2): ≤0.03 µg/mL
MIC (E. coli ATCC 25922; Corning NBS, MH + T80, 2% LS, n = 2): 0.03 to 0.06 µg/mL
MIC (E. coli ATCC 25922; Corning NBS, MH + T80, 50% HS, n = 2): ≤0.03 µg/mL
MIC (E. coli ATCC 25922; Corning NBS, MH, 2% LS, n = 2): ≤0.03 µg/mL
MIC (E. coli ATCC 25922; Corning NBS, MH, 50% HS, n = 2): ≤0.03 µg/mL
MIC (E. coli ATCC 25922; Corning PS plate, MHB −T80, no additive, n = 2): 0.06 µg/mL (≈ 0.0513 µM)
MIC (E. coli ATCC 25922; Corning PS, MH + 2% LHB, 2% LS, n = 2): 0.06 to 0.125 µg/mL
MIC (E. coli ATCC 25922; Corning PS, MH + 2% LHB, 50% HS, n = 2): ≤0.03 µg/mL
MIC (E. coli ATCC 25922; Corning PS, MH + 2% LHB, no additive, n = 2): 1 µg/mL
MIC (E. coli ATCC 25922; Corning PS, MH + T80, 2% LS, n = 2): 0.03 to 0.06 µg/mL
MIC (E. coli ATCC 25922; Corning PS, MH + T80, 50% HS, n = 2): ≤0.03 µg/mL
MIC (E. coli ATCC 25922; Corning PS, MH, 2% LS, n = 2): 0.06 to 0.25 µg/mL
MIC (E. coli ATCC 25922; Corning PS, MH, 50% HS, n = 2): ≤0.03 µg/mL
MIC (E. coli ATCC 25922; Corning TC plate, MHB +0.002% T80, no further additive, n = 2): 1 µg/mL (≈ 0.855 µM)
MIC (E. coli ATCC 25922; Corning TC plate, MHB −T80, no additive, n = 2): 0.5 to 1 µg/mL
MIC (E. coli ATCC 25922; Corning TC, MH + 2% LHB, 2% LS, n = 2): 2 to 4 µg/mL
MIC (E. coli ATCC 25922; Corning TC, MH + 2% LHB, 50% HS, n = 2): 0.25 to 0.5 µg/mL
MIC (E. coli ATCC 25922; Corning TC, MH + 2% LHB, no additive, n = 2): ≤0.03 µg/mL
MIC (E. coli ATCC 25922; Corning TC, MH + T80, 2% LS, n = 2): 1 to 2 µg/mL
MIC (E. coli ATCC 25922; Corning TC, MH + T80, 50% HS, n = 2): 0.25 to 0.5 µg/mL
MIC (E. coli ATCC 25922; Corning TC, MH, 2% LS, n = 2): 0.5 to 1 µg/mL
MIC (E. coli ATCC 25922; Corning TC, MH, 50% HS, n = 2): 0.125 to 0.5 µg/mL
MIC (E. coli ATCC 25922; NBS plates): ≤ 0.03 µg/mL
MIC (E. coli ATCC 25922; Nunc PS plate, MHB +0.002% T80, n = 2): ≤0.03 µg/mL
MIC (E. coli ATCC 25922; Nunc PS plate, MHB −T80, n = 2): 0.125 to 1 µg/mL
MIC (E. coli ATCC 25922; Nunc U TC plate, MHB +0.002% T80, n = 2): 2 µg/mL (≈ 1.71 µM)
MIC (E. coli ATCC 25922; Nunc U TC plate, MHB −T80, n = 2): 0.5 to 1 µg/mL
MIC (E. coli ATCC 25922; Nunc flat TC plate, MHB +0.002% T80, n = 2): 1 to 2 µg/mL
MIC (E. coli ATCC 25922; Nunc flat TC plate, MHB −T80, n = 2): 1 to 2 µg/mL
MIC (E. coli ATCC 25922; PS plates): ≤0.03 to 1 µg/mL
MIC (E. coli ATCC 25922; PS plates with T80): ≤0.03 to 0.25 µg/mL
MIC (E. coli ATCC 25922; TC plates): 0.5 to 4 µg/mL
MIC (E. coli ATCC 25922; Trek PS plate, MHB +0.002% T80, no further additive, n = 2): ≤0.03 µg/mL
MIC (E. coli ATCC 25922; Trek PS plate, MHB −T80, no additive, n = 2): ≤0.03 µg/mL
MIC (E. coli ATCC 25922; Trek PS, MH + 2% LHB, 2% LS, n = 2): ≤0.03 µg/mL
MIC (E. coli ATCC 25922; Trek PS, MH + 2% LHB, 50% HS, n = 2): 0.03 to 0.06 µg/mL
MIC (E. coli ATCC 25922; Trek PS, MH + 2% LHB, no additive, n = 2): 0.03 to 0.06 µg/mL
MIC (E. coli ATCC 25922; Trek PS, MH + T80, 2% LS, n = 2): ≤0.03 µg/mL
MIC (E. coli ATCC 25922; Trek PS, MH + T80, 50% HS, n = 2): ≤0.03 µg/mL
MIC (E. coli ATCC 25922; Trek PS, MH, 2% LS, n = 2): ≤0.03 µg/mL
MIC (E. coli ATCC 25922; Trek PS, MH, 50% HS, n = 2): ≤0.03 µg/mL
MIC (literature) (E. coli): 0.5–2 ([70]) µg/ml
% of concentration remaining ([1]; Greiner untreated PS microwell plates): 2%
% of expected concentration detected ([1]; PP tubes): 90%
% of expected concentration detected ([1]; PS tubes): 84%
% of expected concentration detected ([1]; glass tubes): 80%
% of concentration remaining ([1]; Nunc untreated PS microwell plates): 70%
more potent MICs with surfactant present (over 200 strains): 4- to 8 fold
protein binding [2]: 50 to 60% and 60%
MIC (A. baumannii ATCC 19606; Corning NBS, MHB +T80): ≤ 0.03 µg/mL
MIC (A. baumannii ATCC 19606; Corning NBS, MHB -T80): ≤ 0.03 µg/mL
MIC (A. baumannii ATCC 19606; Corning PS, MHB +T80): 0.06 µg/mL (≈ 0.0513 µM)
MIC (A. baumannii ATCC 19606; Corning PS, MHB -T80): 0.06 to 0.125 µg/mL
MIC (A. baumannii ATCC 19606; Corning TC, MHB +T80): 1 to 2 µg/mL
MIC (A. baumannii ATCC 19606; Corning TC, MHB -T80): 0.5 to 1 µg/mL
MIC (K. pneumoniae ATCC 13883; Corning NBS, MHB +T80): ≤ 0.03 µg/mL
MIC (K. pneumoniae ATCC 13883; Corning NBS, MHB -T80): ≤ 0.03 µg/mL
MIC (K. pneumoniae ATCC 13883; Corning PS, MHB +T80): ≤ 0.03 µg/mL
MIC (K. pneumoniae ATCC 13883; Corning PS, MHB -T80): 0.125 to 0.25 µg/mL
MIC (K. pneumoniae ATCC 13883; Corning TC, MHB +T80): 0.25 to 0.5 µg/mL
MIC (K. pneumoniae ATCC 13883; Corning TC, MHB -T80): 2 µg/mL (≈ 1.71 µM)
MIC (P. aeruginosa ATCC 10145; Corning NBS, MHB +T80): 0.125 µg/mL (≈ 0.107 µM)
MIC (P. aeruginosa ATCC 10145; Corning NBS, MHB -T80): 0.06 µg/mL (≈ 0.0513 µM)
MIC (P. aeruginosa ATCC 10145; Corning PS, MHB +T80): 0.25 to 0.5 µg/mL
MIC (P. aeruginosa ATCC 10145; Corning PS, MHB -T80): 0.25 to 0.5 µg/mL
MIC (P. aeruginosa ATCC 10145; Corning TC, MHB +T80): 1 to 2 µg/mL
MIC (P. aeruginosa ATCC 10145; Corning TC, MHB -T80): 0.5 to 2 µg/mL

From paper PMC6325200, “Effects of Microplate Type and Broth Additives on Microdilution MIC Susceptibility Assays” (Antimicrobial Agents and Chemotherapy, 2018)
